{"source": "ChEMBL document CHEMBL2074367", "about": "“Characterization of a novel bisacridone and comparison with PSC 833 as a potent and poorly reversible modulator of P-glycoprotein” (Mol Pharmacol, 1997)", "target": "ATP-dependent translocase ABCB1 (Homo sapiens, UniProt P08183)", "sequence (P08183 whole entry)": "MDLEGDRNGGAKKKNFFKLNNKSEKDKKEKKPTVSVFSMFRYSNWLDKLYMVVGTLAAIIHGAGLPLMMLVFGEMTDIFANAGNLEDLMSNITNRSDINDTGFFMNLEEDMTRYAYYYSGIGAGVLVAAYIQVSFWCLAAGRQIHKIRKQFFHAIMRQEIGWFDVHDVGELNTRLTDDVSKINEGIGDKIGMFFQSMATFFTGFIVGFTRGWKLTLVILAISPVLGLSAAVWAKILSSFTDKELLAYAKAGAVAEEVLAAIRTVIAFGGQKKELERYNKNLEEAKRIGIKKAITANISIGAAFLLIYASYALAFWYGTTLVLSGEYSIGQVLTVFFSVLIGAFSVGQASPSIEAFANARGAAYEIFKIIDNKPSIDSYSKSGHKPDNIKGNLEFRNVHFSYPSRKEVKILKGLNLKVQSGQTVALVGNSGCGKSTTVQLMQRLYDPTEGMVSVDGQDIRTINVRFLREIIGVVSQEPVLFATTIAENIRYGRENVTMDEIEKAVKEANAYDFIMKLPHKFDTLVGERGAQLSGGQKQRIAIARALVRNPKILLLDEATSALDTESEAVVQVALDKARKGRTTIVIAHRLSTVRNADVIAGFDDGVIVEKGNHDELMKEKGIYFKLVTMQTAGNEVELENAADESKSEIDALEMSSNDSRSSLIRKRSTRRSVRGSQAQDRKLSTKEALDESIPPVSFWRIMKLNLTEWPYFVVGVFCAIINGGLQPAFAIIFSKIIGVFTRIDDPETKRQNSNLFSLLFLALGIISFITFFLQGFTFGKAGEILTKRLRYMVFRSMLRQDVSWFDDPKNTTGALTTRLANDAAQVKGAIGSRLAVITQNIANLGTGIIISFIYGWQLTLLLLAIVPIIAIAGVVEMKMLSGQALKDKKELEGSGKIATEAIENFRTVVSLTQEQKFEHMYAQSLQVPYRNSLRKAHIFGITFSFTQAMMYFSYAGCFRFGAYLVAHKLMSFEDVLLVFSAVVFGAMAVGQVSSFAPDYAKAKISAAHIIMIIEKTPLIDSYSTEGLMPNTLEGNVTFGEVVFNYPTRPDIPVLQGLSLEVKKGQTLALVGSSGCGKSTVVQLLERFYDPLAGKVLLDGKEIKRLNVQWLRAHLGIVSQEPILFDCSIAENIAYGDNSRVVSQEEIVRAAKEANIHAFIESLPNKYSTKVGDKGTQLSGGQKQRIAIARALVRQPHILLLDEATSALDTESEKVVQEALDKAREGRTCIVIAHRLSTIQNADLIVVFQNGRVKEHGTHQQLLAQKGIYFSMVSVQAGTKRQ", "assay": "TP_TRANSPORTER: increase in Vinblastine intracellular accumulation (Vinblastine: 0.0375 uM, PBA: 1 uM) in KB8-5 cells", "assay_type": "functional, cell-based", "conditions": "kb8-5, 1 µM"}
{"smiles": "O=c1c2ccccc2n(CCCn2c3ccccc3c(=O)c3ccccc32)c2ccccc12", "values": [{"measurement": "Inhibition", "result": "inhibitor [800-900 % inhibition]"}]}
